Patent publication US11078213B2, “Thienopyrimidine compound, preparation method thereof, pharmaceutical composition and application thereof” (HONGYUN BIOTECH CO., LTD., priority 2016, dated 2021)

Assays:
[1] = biological target: T1, EML4-ALK-BaF3 (Homo sapiens, UniProt Q9UM73); assay: Growth inhibition of BaF3 cells stably transfected with kinase EML4-ALK (MTS); assay type: cell-based; conditions: compound concentration 3.3 μM, read-out: cell growth inhibition rate, EML4-ALK
T1 construct: EML4 (echinoderm microtubule associated protein like 4, Q9HC35) fusion partner; expressed in transfected cells; host or cells: BaF3; the other entry of the earlier key: EML4 (Q9HC35, Echinoderm microtubule-associated protein-like 4)
T1 sequence (Q9UM73 1058-1620 limits assumed): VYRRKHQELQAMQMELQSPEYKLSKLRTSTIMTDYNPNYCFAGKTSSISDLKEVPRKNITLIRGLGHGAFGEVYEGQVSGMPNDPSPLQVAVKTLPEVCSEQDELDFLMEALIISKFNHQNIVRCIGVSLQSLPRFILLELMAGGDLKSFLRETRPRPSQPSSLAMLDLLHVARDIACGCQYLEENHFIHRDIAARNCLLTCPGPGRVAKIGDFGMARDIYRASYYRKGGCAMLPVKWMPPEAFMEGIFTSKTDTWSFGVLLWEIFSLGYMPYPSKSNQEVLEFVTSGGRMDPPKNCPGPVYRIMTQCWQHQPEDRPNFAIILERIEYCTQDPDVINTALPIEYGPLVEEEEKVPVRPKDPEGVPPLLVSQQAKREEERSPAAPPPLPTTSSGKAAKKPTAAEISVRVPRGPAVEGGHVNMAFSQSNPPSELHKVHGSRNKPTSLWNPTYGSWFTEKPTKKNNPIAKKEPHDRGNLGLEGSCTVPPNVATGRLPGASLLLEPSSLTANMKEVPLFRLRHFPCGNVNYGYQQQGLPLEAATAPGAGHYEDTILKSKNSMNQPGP
Experimental: (§1) The specific test method is given as follows:
(§2) 2) Reagent: MTS reaction solution (containing 2 mg/mL of MTS [3-(4,5-dimethylthiazol-2-yl)-5-(3-carboxymethoxyphenyl)-2-(4-sulfophenyl)-2H-tetra zolium, inner Salt]; 100 µg/mL PES ([…])).

[2] = biological target: T2, NPM-ALK-BaF3 (Homo sapiens, UniProt Q9UM73); assay: Growth inhibition of BaF3 cells stably transfected with kinase NPM-ALK (MTS); assay type: cell-based; conditions: compound concentration 3.3 μM, read-out: cell growth inhibition rate, NPM-ALK
T2 construct: NPM (nuclear phosphoprotein / nucleophosmin, NPM1, P06748) fusion partner; expressed in transfected cells; host or cells: BaF3; the other entry of the earlier key: NPM1 (P06748, Nucleophosmin)
T2 sequence (Q9UM73 with tags, fused parts or gaps): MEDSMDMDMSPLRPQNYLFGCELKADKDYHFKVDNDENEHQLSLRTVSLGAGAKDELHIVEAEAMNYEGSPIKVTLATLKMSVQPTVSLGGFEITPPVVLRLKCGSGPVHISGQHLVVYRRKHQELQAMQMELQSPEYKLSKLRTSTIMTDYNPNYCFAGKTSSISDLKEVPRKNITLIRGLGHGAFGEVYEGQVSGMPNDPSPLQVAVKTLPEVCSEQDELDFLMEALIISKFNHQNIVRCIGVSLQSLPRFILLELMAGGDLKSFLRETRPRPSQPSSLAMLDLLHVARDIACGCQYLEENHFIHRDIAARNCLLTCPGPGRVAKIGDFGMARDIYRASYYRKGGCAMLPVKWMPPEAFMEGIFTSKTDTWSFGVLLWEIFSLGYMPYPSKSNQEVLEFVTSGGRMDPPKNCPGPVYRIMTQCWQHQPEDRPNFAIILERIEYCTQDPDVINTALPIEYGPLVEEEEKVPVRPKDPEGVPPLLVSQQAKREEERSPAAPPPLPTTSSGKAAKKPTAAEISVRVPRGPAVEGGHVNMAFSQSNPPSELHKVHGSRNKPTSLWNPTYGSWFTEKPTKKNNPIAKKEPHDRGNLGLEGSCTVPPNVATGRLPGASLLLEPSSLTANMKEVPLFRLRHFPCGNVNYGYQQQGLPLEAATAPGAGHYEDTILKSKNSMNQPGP
Experimental: as §1, §2

Structure (SMILES)	inhibition at 3.3 µM [1] [%]	inhibition at 3.3 µM [2] [%]
CCP(=O)(CC)c1ccccc1Nc1nc(Nc2cc3c(cc2OC)CCN3C(=O)CN(C)C)nc2ccsc12 [IS-1]	98.7	–
CCP(=O)(CC)c1ccccc1Nc1nc(Nc2ccc(N3CCC(N(C)C)CC3)cc2OC)nc2ccsc12 [IS-6]	99.5	–
CC(C)P(=O)(c1ccccc1Nc1nc(Nc2ccc(N3CCN(C)CC3)cc2)nc2ccsc12)C(C)C [IR-6]	98.3	–
COc1cc(N2CCN(C)CC2)ccc1Nc1nc(Nc2ccccc2P(=O)(C(C)C)C(C)C)c2sccc2n1 [IR-3]	99.2	–
CCP(=O)(CC)c1ccccc1Nc1nc(Nc2ccc(N3CCC(N4CCN(C)CC4)CC3)cc2OC)nc2ccsc12 [IS-3]	101	–
COc1cc(N2CCC(N(C)C)CC2)ccc1Nc1nc(Nc2ccccc2S(=O)(=O)C(C)C)c2sccc2n1 [IB-31]	98.1	–
COc1cc(N2CCC(N(C)C)CC2)ccc1Nc1nc(OCc2ccccc2S(=O)(=O)C(C)C)c2sccc2n1 [IT-5]	101	–
COc1cc(N2CCC(N3CCN(C)CC3)CC2)ccc1Nc1nc(Nc2ccccc2P(=O)(C(C)C)C(C)C)c2sccc2n1 [IR-4]	98.4	–
COc1cc(N2CCN(C)CC2)ccc1Nc1nc(Nc2ccccc2C(=O)NC(C)C)c2sccc2n1 [IP-2]	97.3	–
COc1cc2c(cc1Nc1nc(Nc3ccccc3C(=O)N(C)C)c3sccc3n1)N(C(=O)CN(C)C)CC2 [IQ-1]	96.9	–
COc1cc2c(cc1Nc1nc(OCc3ccccc3S(=O)(=O)C(C)C)c3sccc3n1)N(C(=O)CN(C)C)CC2 [IT-1]	99.8	–
COc1cc(N2CCN(C)CC2)ccc1Nc1nc(Nc2ccccc2S(=O)(=O)C(C)(C)C)c2sccc2n1 [IO-3]	98.7	–
CC(C)Oc1cc(N2CCC(O)CC2)ccc1Nc1nc(Nc2ccccc2S(=O)(=O)C(C)C)c2sccc2n1 [IB-18]	–	66.1
CS(=O)(=O)Nc1ccccc1Nc1nc(Nc2ccc(S(N)(=O)=O)cc2)nc2ccsc12 [IH-7]	–	15.1
COc1cc(N2CCC(N(C)C)CC2)ccc1Nc1nc(Nc2ccccc2S(=O)(=O)C(C)(C)C)c2sccc2n1 [IO-4]	97	–
COc1cc(N2CCN(C)CC2)ccc1Nc1nc(Nc2ccccc2NS(C)(=O)=O)c2sccc2n1 [IH-3]	–	79.2
CC(C)S(=O)(=O)c1nn(C)cc1Nc1nc(Nc2ccc(N3CCC(O)CC3)cc2)nc2ccsc12 [IC-4]	–	53.2
COc1cc2c(cc1Nc1nc(Nc3ccccc3P(=O)(C(C)C)C(C)C)c3sccc3n1)N(C(=O)CN(C)C)CC2 [IR-1]	97.5	–
CC(C)S(=O)(=O)c1ccccc1Nc1nc(Nc2ccc(OCc3ccccn3)cc2)nc2ccsc12 [IB-20]	–	66
COc1cc(N2CCC(N3CCN(C)CC3)CC2)ccc1Nc1nc(OCc2ccccc2S(=O)(=O)C(C)C)c2sccc2n1 [IT-3]	87.8	–
CC(C)S(=O)(=O)c1ccccc1Nc1nc(Nc2ccc(C(=O)N3CCN(C)CC3)cc2)nc2ccsc12 [IB-26]	–	97.3
COc1cc(C2CCN(C)CC2)c(C)cc1Nc1nc(Nc2ccccc2S(=O)(=O)C(C)C)c2sccc2n1 [IB-5]	–	88.9
CCOc1cc(N2CCC(O)CC2)ccc1Nc1nc(Nc2ccccc2S(=O)(=O)C(C)C)c2sccc2n1 [IB-17]	–	86
CCP(=O)(CC)c1ccccc1Nc1nc(Nc2ccc(N3CCC(N4CCCC4)CC3)cc2OC)nc2ccsc12 [IS-2]	98.2	–
CC(C)S(=O)(=O)c1ccccc1Nc1nc(Nc2ccc(N3CCN(C)CC3)cc2)nc2ccsc12 [IB-3]	–	94.2
CS(=O)(=O)Nc1ccccc1Nc1nc(Nc2ccc(N3CCC(O)CC3)cc2)nc2ccsc12 [IH-4]	–	26.7

Structure (SMILES)	inhibition at 3.3 µM [1] [%]	inhibition at 3.3 µM [2] [%]
COc1cc(N2CCC(N3CCCC3)CC2)ccc1Nc1nc(Nc2ccccc2P(=O)(C(C)C)C(C)C)c2sccc2n1 [IR-2]	96.3	–
COc1cc(C(=O)N2CCC(N3CCN(C)CC3)CC2)ccc1Nc1nc(Nc2ccccc2S(=O)(=O)C(C)C)c2sccc2n1 [IB-22]	–	87.3
COc1cc2c(cc1Nc1nc(Nc3ccccc3S(=O)(=O)C(C)(C)C)c3sccc3n1)N(C(=O)CN(C)C)CC2 [IO-1]	97.1	–
COc1cc(F)c(NC(=O)CN(C)C)cc1Nc1nc(Nc2ccccc2S(=O)(=O)C(C)C)c2sccc2n1 [IB-35]	96.8	–
COc1cc(N2CCC(N3CCN(C)CC3)CC2)ccc1Nc1nc(Nc2cn(C)nc2S(=O)(=O)C(C)C)c2sccc2n1 [IC-2]	–	55
COc1cc(N2CCC(N3CCN(C)CC3)CC2)ccc1Nc1nc(Nc2ccccc2S(=O)(=O)C(C)(C)C)c2sccc2n1 [IO-2]	96	–
CCP(=O)(CC)c1ccccc1Nc1nc(Nc2ccc(N3CCN(C)CC3)cc2OC)nc2ccsc12 [IS-4]	103	–
CC(C)S(=O)(=O)c1ccccc1Nc1nc(Nc2ccc(N3CCC(O)CC3)cc2)nc2ccsc12 [IB-4]	–	96
COc1cc(N2CCN(C)CC2)ccc1Nc1nc(Nc2ccccc2S(=O)(=O)C(C)C)c2sccc2n1 [IB-8]	–	83.7
CCP(=O)(CC)c1ccccc1Nc1nc(Nc2ccc(N3CCN(C)CC3)cc2)nc2ccsc12 [IS-5]	103	–
COc1cc(N2CCC(N(C)C)CC2)ccc1Nc1nc(Nc2ccccc2C(=O)NC(C)C)c2sccc2n1 [IP-3]	99.1	–
COc1cc(N2CCC(N3CCN(C)CC3)CC2)ccc1Nc1nc(Nc2ccccc2C(=O)NC(C)C)c2sccc2n1 [IP-1]	97.4	–
CC(C)S(=O)(=O)c1ccccc1Nc1nc(Nc2ccc(N3CCC(O)CC3)cn2)nc2ccsc12 [IB-12]	–	55.9
COc1ccc(NC(=O)CN(C)C)cc1Nc1nc(Nc2ccccc2S(=O)(=O)C(C)C)c2sccc2n1 [IB-32]	95	–
COc1cc2c(cc1Nc1nc(NCc3ccccc3S(=O)(=O)C(C)C)c3sccc3n1)N(C(=O)CN(C)C)CC2 [IM-1]	–	94.2
CC(C)S(=O)(=O)c1ccccc1Nc1nc(Nc2ccc(N3CCOCC3)cc2)nc2ccsc12 [IB-15]	–	83.3
CC(C)S(=O)(=O)c1ccccc1Nc1nc(Nc2ccc(N3CCN(C(=O)OC(C)(C)C)CC3)cc2)nc2ccsc12 [IB-25]	–	61.4
COc1cc2c(cc1Nc1nc(Nc3ccccc3NS(C)(=O)=O)c3sccc3n1)N(C(=O)CN(C)C)CC2 [IH-1]	–	12.7
COc1cc(N2CCC(N(C)C)CC2)ccc1Nc1nc(Nc2ccccc2P(=O)(C(C)C)C(C)C)c2sccc2n1 [IR-5]	98.3	–
COc1cc(N2CCC(N3CCN(C)CC3)CC2)ccc1Nc1nc(NCc2ccccc2S(C)(=O)=O)c2sccc2n1 [IL-2]	–	54.8
CC(C)S(=O)(=O)c1ccccc1Nc1nc(Nc2ccc(N3CCN(C)CC3)cn2)nc2ccsc12 [IB-24]	–	97.4
CC(C)S(=O)(=O)c1ccccc1COc1nc(Nc2ccc(N3CCOCC3)cc2)nc2ccsc12 [IT-4]	100	–
CCOc1cc(N2CCN(C)CC2)ccc1Nc1nc(Nc2ccccc2C(=O)NC)c2sccc2n1 [II-4]	–	46.6
CNC(=O)c1ccccc1Nc1nc(Nc2ccc(N3CCC(O)CC3)cc2)nc2ccsc12 [II-5]	–	31.6
COc1cc2c(cc1Nc1nc(Nc3ccccc3S(=O)(=O)C(C)C)c3sccc3n1)N(C(=O)CN1CCCC1)CC2 [IB-33]	98.3	–
COc1cc2c(cc1Nc1nc(Nc3cccc(NS(C)(=O)=O)c3)c3sccc3n1)N(C(=O)CN(C)C)CC2 [IG-1]	–	22.2
